Here are results for four compounds from DBAASP.

Structures are written as SMILES. In brackets after ≈: the same amount, converted by molar mass.

Some test systems named below: Escherichia coli BL21; Pseudomonas syringae; Escherichia coli K-12; Klebsiella pneumoniae.
What all share (experiment): ≥ marks a high value that may be exact or a test limit, other limits are often not marked, values filed in µg/mL are converted to µM
The subject of assay [1] is Staphylococcus aureus ATCC 12493.
For assay [2], the system named is Escherichia coli NCTC 10418.
Assay [3] relates to Staphylococcus aureus NCTC 10788.
For assay [4], the system named is Candida albicans NCPF 1467.
Assay [5] relates to Xanthomonas axonopodis pv. phaseoli ATCC 9563.
The subject of assay [6] is Streptococcus pyogenes GAS M1T1.
In assay [7] the test system is Pseudomonas aeruginosa PAO1.
Assay [8] deals with Staphylococcus aureus NCTC 8325-4.

`CC(C)C[C@H](NC(=O)[C@H](CC(C)C)NC(=O)[C@H](CCCCN)NC(=O)[C@@H]1CCCN1C(=O)[C@H](CC(C)C)NC(=O)[C@@H](N)Cc1ccccc1)C(=O)N[C@@H](C)C(=O)NCC(=O)N[C@@H](CC(C)C)C(=O)N1CCC[C@H]1C(=O)N[C@@H](CO)C(=O)N[C@@H](Cc1ccccc1)C(=O)N[C@@H](CC(C)C)C(=O)N[C@H]1CSSC[C@@H](C(=O)O)NC(=O)[C@H](CCCCN)NC(=O)[C@H](CCCCN)NC(=O)[C@H](Cc2ccccc2)NC(=O)[C@H](C(C)C)NC(=O)[C@H](CC(C)C)NC1=O` [FLPKLLAGLPSFLCLVFKKC]: the MIC in assay [1] came out at 8 µM (≈ 17.9 µg/mL); in assay [2], 16 µM (≈ 35.8 µg/mL); in assay [3], 16 µM (≈ 35.8 µg/mL); in assay [4] it was 8 µM (≈ 17.9 µg/mL).

As for `CC[C@H](C)[C@H](NC(=O)[C@H](CCCCN)NC(=O)[C@H](CC(N)=O)NC(=O)[C@H](CCCCN)NC(=O)[C@H](CC(C)C)NC(=O)[C@H](Cc1ccc(O)cc1)NC(=O)[C@H](CCC(N)=O)NC(=O)[C@H](CCCN=C(N)N)NC(=O)[C@@H](NC(=O)[C@@H](NC(=O)[C@H](CCC(=O)O)NC(=O)[C@H](CCCCN)NC(=O)[C@H](Cc1c[nH]c2ccccc12)NC(=O)[C@H](C)N)[C@@H](C)O)[C@@H](C)CC)C(=O)N[C@@H](CCCCN)C(=O)N[C@@H](CCCCN)C(=O)N[C@@H](CCCCN)C(=O)N[C@@H](Cc1c[nH]c2ccccc12)C(=O)N[C@@H](CCCN=C(N)N)C(=O)N[C@@H](CCCCN)C(=O)N[C@@H](C)C(=O)N[C@H](C(=O)N[C@H](C(=O)N[C@@H](C)C(=O)N[C@@H](Cc1c[nH]c2ccccc12)C(=O)O)[C@@H](C)CC)C(C)C` [AWKETIRQYLKNKIKKKWRKAVIAW], the MIC turned out to be 2 µM (≈ 6.37 µg/mL) in the assay on Escherichia coli BL21, 1 µM (≈ 3.19 µg/mL) in assay [5], 10 µM (≈ 31.9 µg/mL) in assay [6] and 8 µM (≈ 25.5 µg/mL) in the assay on Pseudomonas syringae.

`NCCCC[C@H](NC(=O)[C@H](CCCCN)NC(=O)[C@H](Cc1c[nH]c2ccccc12)NC(=O)[C@H](Cc1c[nH]c2ccccc12)NC(=O)[C@H](CCCCN)NC(=O)[C@H](CCCCN)NC(=O)[C@@H](N)Cc1c[nH]c2ccccc12)C(=O)N[C@@H](Cc1c[nH]c2ccccc12)C(N)=O` [WKKWWKKW]: the minimum inhibitory concentration (MIC) in assay [7] is greater than 250 µM; against Escherichia coli K-12 it was 31.3 µM (≈ 39.9 µg/mL); in [8], no less than 62.5 µM; against Klebsiella pneumoniae, 250 µM (≈ 319 µg/mL).

`CC[C@H](C)[C@H](NC(=O)[C@H](CCC(=O)O)NC(=O)[C@H](CC(N)=O)NC(=O)[C@H](CCCCN)NC(=O)[C@H](CC(C)C)NC(=O)[C@H](Cc1ccc(O)cc1)NC(=O)[C@H](CCCCN)NC(=O)[C@H](CCCN=C(N)N)NC(=O)[C@@H](NC(=O)[C@@H](NC(=O)[C@H](CCC(=O)O)NC(=O)[C@H](CCCCN)NC(=O)[C@H](Cc1c[nH]c2ccccc12)NC(=O)[C@H](C)N)[C@@H](C)O)[C@@H](C)CC)C(=O)N[C@@H](CCCCN)C(=O)N[C@@H](CCCCN)C(=O)N[C@@H](CCCCN)C(=O)N[C@@H](Cc1c[nH]c2ccccc12)C(=O)N[C@@H](CCCN=C(N)N)C(=O)N[C@@H](CCCCN)C(=O)N[C@@H](C)C(=O)N[C@H](C(=O)N[C@H](C(=O)N[C@@H](C)C(=O)N[C@@H](Cc1c[nH]c2ccccc12)C(=O)O)[C@@H](C)CC)C(C)C` [AWKETIRKYLKNEIKKKWRKAVIAW]: the MIC is 2 µM (≈ 6.38 µg/mL) in the assay on Escherichia coli BL21; 2 µM (≈ 6.38 µg/mL) in assay [5]; 8 µM (≈ 25.5 µg/mL) in assay [7]; 10 µM (≈ 31.9 µg/mL) in assay [6]; 8 µM (≈ 25.5 µg/mL) against Pseudomonas syringae.

What is called MIC is the lowest concentration found to suppress growth.
